Series [1] concerns the target T1, Long-chain-fatty-acid--AMP ligase FadD32 (Mycobacterium tuberculosis (strain ATCC 25618 / H37Rv)) (UniProt O53580).
T1 sequence (whole entry): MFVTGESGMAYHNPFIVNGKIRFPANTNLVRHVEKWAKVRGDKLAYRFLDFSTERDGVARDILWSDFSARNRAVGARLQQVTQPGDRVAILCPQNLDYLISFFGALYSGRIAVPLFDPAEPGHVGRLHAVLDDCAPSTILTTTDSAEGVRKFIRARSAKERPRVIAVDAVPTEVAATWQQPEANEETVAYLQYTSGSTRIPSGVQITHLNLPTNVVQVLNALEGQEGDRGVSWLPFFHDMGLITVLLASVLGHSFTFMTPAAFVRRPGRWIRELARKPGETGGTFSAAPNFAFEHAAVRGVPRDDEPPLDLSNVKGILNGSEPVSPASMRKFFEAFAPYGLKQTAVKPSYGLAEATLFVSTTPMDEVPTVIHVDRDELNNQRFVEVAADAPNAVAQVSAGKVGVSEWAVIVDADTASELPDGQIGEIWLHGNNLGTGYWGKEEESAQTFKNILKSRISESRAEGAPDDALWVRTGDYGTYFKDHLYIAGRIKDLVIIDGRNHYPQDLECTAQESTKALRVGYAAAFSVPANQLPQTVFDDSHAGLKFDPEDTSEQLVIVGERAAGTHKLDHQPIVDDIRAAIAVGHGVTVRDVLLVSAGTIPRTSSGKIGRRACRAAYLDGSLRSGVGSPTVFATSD
Briefly: Inhibition of Mycobacterium tuberculosis H37Rv FadD32 assessed as reduction in bacterial viability after 6 days by resazurin dye based fluorescence assay. (In general: Resazurin is reduced to fluorescent resorufin, in cell work by metabolically active cells.)

The nature of series [2]: Kinetic solubility of the compound at pH 7.4 by chemiluminescence nitrogen detection method. The series is classed as physicochemical. The note with it: buffer, read-out: Kinetic_solubility.
A short description of series [3]: Metabolic stability in mouse liver microsomes at 1 uM after 60 mins by UPLC-MS/MS analysis. The series is classed as ADME, microsome. The following applies: for remaining at 1 h, 1 µM: liver microsomes, read-out: Stability. A general note: Microsomes from liver hold many membrane-bound enzymes, among them those of drug oxidation.
Series [4] can be described thus: Metabolic stability in human liver microsomes at 1 uM after 60 mins by UPLC-MS/MS analysis. The format is ADME, microsome. The note with it: for remaining at 1 h, 1 µM: liver microsomes, read-out: Stability.
Series [5] has as its system HepG2. Briefly: Cytotoxicity against human HepG2 cells after 48 hrs by CellTiter-Glo assay. The format is cell-based. The following applies: HepG2, 48 h. For orientation: In ATP-based viability assays light output follows the ATP content of the culture.
Series [6] can be described thus: Drug level treated with 4-(4-fluorophenyl)-5,7-dimethyl-6-(4-(morpholinomethyl)phenyl)-2H-chromen-2-one under basic condition after 18 hrs at room temperature in presence of morpholine. The format is physicochemical.
Series [7] deals with Mycobacterium tuberculosis. Briefly: Antimycobacterial activity against Mycobacterium tuberculosis H37Rv infected in C57BL/6J mouse assessed as log reduction in bacterial load in lungs up to 50 mg/kg, po qd via gavage up to day 8 post infection starting from day 1 post infection measured on day 9. The series is classed as functional.
Series [8] has as its system Mycobacterium tuberculosis. Briefly: Antimycobacterial activity against Mycobacterium tuberculosis H37Rv infected in C57BL/6J mouse assessed as reduction in bacterial load in lungs administered po qd via gavage up to day 8 post infection starting from day 1 post infection measured on day 9. The format is functional, organism-based.
Series [9] relates to Mycobacterium tuberculosis. Briefly: Antimycobacterial activity against Mycobacterium tuberculosis H37Rv infected in C57BL/6J mouse assessed as 2 log reduction in bacterial load in lungs administered po qd via gavage up to day 8 post infection starting from day 1 post infection measured on day 9. The format is functional.
The test system of series [10] is Mus musculus. Briefly: Toxicity in C57BL/6J mouse infected with Mycobacterium tuberculosis H37Rv assessed as mortality up to 50 mg/kg, po qd via gavage up to day 8 post infection starting from day 1 post infection measured daily. The format is organism-based. The note with it: in vivo.
Series [11] has as its system Mycobacterium tuberculosis. Kind of series: Antimycobacterial activity against Mycobacterium tuberculosis. The format is functional.
Series [12] in a line: Protein binding in mouse plasma a 5 uM after 5 hrs by UPLC-MS based rapid equilibrium dialysis method. The format is ADME, cell-free.
Series [13] in a line: Protein binding in human plasma a 5 uM after 5 hrs by UPLC-MS based rapid equilibrium dialysis method. The series is classed as ADME, cell-free.
The nature of series [14]: Plasma clearance in mouse at 1 mg/kg, iv. The series is classed as ADME, organism-based.

≈ marks a conversion by molar mass, not a printed value.

On to `Cc1cc2nc(CO)cc(-c3ccccc3Cl)c2c(C)c1-c1ccncc1`, for which the MIC90 in series [1] is 3.75 µM (≈ 1.41 µg/mL). In series [2], the solubility kinetic stood at 32 µM (≈ 12 µg/mL).
On to `Cc1cc2nccc(-c3ccc(Cl)cc3)c2c(C)c1-c1ccc(CN2CCOCC2)cc1`, for which the MIC90 in series [1] was above 80 µM.
On to `Cc1cc2nccc(-c3cccc(Cl)c3)c2c(C)c1-c1ccc(CN2CCOCC2)cc1`, for which the MIC90 in [1] was 1.5 µM (≈ 0.664 µg/mL). Also, the solubility kinetic in series [2] stood at 1 µM (≈ 0.443 µg/mL).
Turning to `Cc1cc2nc(C(=O)N(C)C)cc(-c3ccccc3Cl)c2c(C)c1-c1ccncc1`, the MIC90 in series [1] worked out at 20 µM (≈ 8.32 µg/mL). Moreover, the solubility kinetic in series [2] was 157 µM (≈ 65.3 µg/mL).
For orientation: IC50 means the concentration that inhibits the measured activity by half. Turning to `Cc1cc2nc(C(=O)NCCO)cc(-c3ccccc3Cl)c2c(C)c1-c1ccncc1`, in [1], the MIC90 is 0.3 µM (≈ 0.13 µg/mL). Further, the solubility kinetic in series [2] amounted to 25 µM (≈ 10.8 µg/mL). For the same compound, the remaining at 1 h, 1 µM came to 26.2% in series [3] and 8% in [4]. Also, 100 µM corresponded to half-maximal inhibition in series [5] (IC50).
In the same order, the values of `Cc1cc2nc(C(=O)NCCN(C)C)cc(-c3ccccc3Cl)c2c(C)c1-c1ccncc1` are 0.3 µM (≈ 0.138 µg/mL), 263 µM (≈ 121 µg/mL), 24%, 3.2% and 16 µM.
In the case of `Cc1cc(O)c(/C(=C\C(=O)N2CCOCC2)c2ccc(F)cc2)c(C)c1-c1ccc(CN2CCOCC2)cc1`, the Drug metabolism result in series [6] is “Metabolite_Detected”.
`Cc1cccc(C)c1-c1ccnc2cc(C)c(-c3ccc(CN4CCOCC4)cc3)c(C)c12`: in [1], the MIC90 is 5 µM (≈ 2.18 µg/mL).
`CNC(=O)c1cc(-c2ccccc2Cl)c2c(C)c(-c3ccncc3)c(C)cc2n1`: the MIC90 in [1] was 0.8 µM (≈ 0.322 µg/mL). Besides, in series [2], the solubility kinetic is 15 µM (≈ 6.03 µg/mL). The remaining at 1 h, 1 µM in series [3] was 19.1%; in series [4] it was 19.4%. In series [5], this compound showed an IC50 of 60 µM. The figures for the Activity in series [7], in series [8] and in series [10] were 4 deltalog10CFU, “Dose-dependent effect” and “Non-Toxic”, respectively. In [9], the ED99 worked out at 7.8 mg/kg.
As for `CCOC(=O)c1cc(-c2ccccc2Cl)c2c(C)c(-c3ccncc3)c(C)cc2n1`, in [1], the MIC90 worked out at 10 µM (≈ 4.17 µg/mL). Further, the solubility kinetic in [2] amounted to 9 µM (≈ 3.75 µg/mL).
Consider `Cc1cc2nccc(-c3ccccc3Cl)c2c(C)c1-c1ccc(CN2CCOCC2)cc1`, for which the MIC90 in [1] worked out at 0.3 µM (≈ 0.133 µg/mL).
Turning to `Cc1cc2nccc(-c3ccccc3Cl)c2c(C)c1-c1ccncc1`, in [1], the MIC90 came to 5 µM (≈ 1.72 µg/mL). The solubility kinetic in series [2] stood at 21 µM (≈ 7.24 µg/mL).
`Cc1cc2nc(C(=O)N3CCOCC3)cc(-c3ccccc3Cl)c2c(C)c1-c1ccncc1`: the MIC90 in series [1] was determined as 15 µM (≈ 6.87 µg/mL). Moreover, the solubility kinetic in [2] came to 145 µM (≈ 66.4 µg/mL).
As for `Cc1cc2oc(=O)cc(-c3cccc(N)c3)c2c(C)c1-c1ccc(CN2CCOCC2)cc1`, in [11], the MIC90 is 0.24 to 5.6 µM (≈ 0.106 to 2.47 µg/mL).
For the compound `Cc1cc2nc(C(N)=O)cc(-c3ccccc3Cl)c2c(C)c1-c1ccncc1`, the MIC90 in [1] was determined as 1.25 µM (≈ 0.485 µg/mL). Moreover, in [2], the solubility kinetic is 8 µM (≈ 3.1 µg/mL).
Turning to `Cc1cc2occ(-c3ccccc3)c2c(C)c1-c1ccc(CN2CCOCC2)cc1`, the MIC90 in [1] turned out to be 2.5 µM (≈ 0.994 µg/mL).
For the compound `CCc1ccccc1CNc1ccnc2cc(C)c(-c3ccc(CN4CCOCC4)cc3)c(C)c12`, the MIC90 in series [1] was 2.5 µM (≈ 1.16 µg/mL). Moreover, the solubility kinetic in series [2] worked out at 59 µM (≈ 27.5 µg/mL).
`Cc1cc2nccc(-c3ccccc3C(=O)O)c2c(C)c1-c1ccc(CN2CCOCC2)cc1`: the MIC90 in series [1] worked out at 40 µM (≈ 18.1 µg/mL). Further, in series [2], the solubility kinetic is 222 µM (≈ 100 µg/mL).
For `COc1ncccc1-c1ccnc2cc(C)c(-c3ccc(CN4CCOCC4)cc3)c(C)c12`, in series [1], the MIC90 worked out at 2.5 µM (≈ 1.1 µg/mL). Also, in series [2], the solubility kinetic was 1 µM (≈ 0.44 µg/mL).
The compound `Cc1cc2oc(=O)cc(-c3ccccc3)c2c(C)c1-c1ccncc1` displayed an MIC90 in [11] of 0.24 to 5.6 µM (≈ 0.0786 to 1.83 µg/mL).
Take `Cc1cc2nc(C(=O)NCCF)cc(-c3ccccc3Cl)c2c(C)c1-c1ccncc1`: in series [1], the MIC90 came to 1.25 µM (≈ 0.542 µg/mL). Also, in [2], the solubility kinetic is 5 µM (≈ 2.17 µg/mL).
In the same order, the values of `Cc1cc2nc(C(C)(C)O)cc(-c3ccccc3Cl)c2c(C)c1-c1ccncc1` are above 40 µM and 38 µM (≈ 15.3 µg/mL).
The like results for `COc1cccc(-c2ccnc3cc(C)c(-c4ccc(CN5CCOCC5)cc4)c(C)c23)c1Cl` were, in that order, 10 µM (≈ 4.73 µg/mL) and 2 µM (≈ 0.946 µg/mL).
The like results for `Cc1cc2nc(C(=O)NC(C)C)cc(-c3ccccc3Cl)c2c(C)c1-c1ccncc1` were, in that order, 2.5 µM (≈ 1.07 µg/mL) and 4 µM (≈ 1.72 µg/mL).
As to `Cc1cc2nc(C(=O)O)cc(-c3ccccc3Cl)c2c(C)c1-c1ccncc1`, in [1], the MIC90 was determined as 80 µM (≈ 31.1 µg/mL). Moreover, the solubility kinetic in [2] was found to be 226 µM (≈ 87.9 µg/mL).
As for `Cc1cc2nc(C(=O)N3CCCC3)cc(-c3ccccc3Cl)c2c(C)c1-c1ccncc1`, the MIC90 in series [1] was found to be 5 µM (≈ 2.21 µg/mL). Also, the solubility kinetic in series [2] stood at 41 µM (≈ 18.1 µg/mL).
For the compound `Cc1cc2oc(=O)cc(-c3ccccc3)c2c(C)c1-c1ccc(CN2CCOCC2)cc1`, in [11], the MIC90 lay in the range of 0.24 to 5.6 µM (≈ 0.102 to 2.38 µg/mL).
Take `Cc1cc2nccc(-c3ccccc3C(N)=O)c2c(C)c1-c1ccc(CN2CCOCC2)cc1`: the MIC90 in series [1] is 20 µM (≈ 9.03 µg/mL).
Still for that read-out and setting: the result for `Cc1cc2nc(C(=O)N3CCNCC3)cc(-c3ccccc3Cl)c2c(C)c1-c1ccncc1` reads 10 µM (≈ 4.57 µg/mL); that for `Cc1cc2nccc(-c3ccccc3)c2c(C)c1-c1ccc(CN2CCOCC2)cc1`, 0.45 µM (≈ 0.184 µg/mL).
For `Cc1cc2nccc(-c3ccccc3C#N)c2c(C)c1-c1ccc(CN2CCOCC2)cc1`, in series [1], the MIC90 turned out to be 2.5 µM (≈ 1.08 µg/mL). Moreover, the solubility kinetic in series [2] was 24 µM (≈ 10.4 µg/mL).
For the compound `Cc1cc2nccc(-c3ccnn3C)c2c(C)c1-c1ccc(CN2CCOCC2)cc1`, in series [1], the MIC90 was 2.5 µM (≈ 1.03 µg/mL). For the same compound, the solubility kinetic in series [2] came to 243 µM (≈ 100 µg/mL).
With `Cc1cc2[nH]c(=O)cc(-c3ccccc3)c2c(C)c1-c1ccc(CN2CCOCC2)cc1`, the MIC90 in series [1] is above 40 µM.
With `Cc1cc2nccc(-c3cccnc3)c2c(C)c1-c1ccc(CN2CCOCC2)cc1`, the MIC90 in series [1] was determined as 5 µM (≈ 2.05 µg/mL). Besides, in [2], the solubility kinetic worked out at 209 µM (≈ 85.6 µg/mL).
As usually defined, the clearance is the rate of elimination divided by the concentration. A low value points to inefficient removal. With `Cc1cc2nccc(-c3cncnc3)c2c(C)c1-c1ccc(CN2CCOCC2)cc1`, the MIC90 in [1] is 2.5 µM (≈ 1.03 µg/mL). In [2], the solubility kinetic was above 230 µM. In addition, the results for the PPB in [12] and in [13] were 92.8% and 95.2%, respectively. Besides, the Stability is listed as below 5% in series [3] (microsomes, 1 h, 1 µM) and 11.6% in series [4] (microsomes, 1 h, 1 µM). The compound further yielded a clearance in series [14] of 65.1 mL/min/kg.
On to `COc1ccncc1-c1ccnc2cc(C)c(-c3ccc(CN4CCOCC4)cc3)c(C)c12`, for which, in [1], the MIC90 was determined as 2.5 µM (≈ 1.1 µg/mL). The solubility kinetic in series [2] was determined as 169 µM (≈ 74.3 µg/mL).

The values above are taken from ChEMBL document CHEMBL4261616, “Discovery of heterocyclic replacements for the coumarin core of anti-tubercular FadD32 inhibitors” (Bioorg Med Chem Lett, 2018).
